Experimental data reported in US20030013099A1, “Genes regulated by DNA methylation in colon tumors” (priority 2001, published 2003).

System: HMEC cells
Test: microarray differential expression, HMEC cells treated with Aza
Type: cell-based, human
Settings: vs untreated, log base 2, negative = upregulation
Description: HT29 cells were derived from a Grade II adenocarcinoma of the colon obtained from a person. HCT116 cells are a subpopulation of malignant cells isolated from a primary cell culture of a single human colonic carcinoma (Brattain et al. (1981) Cancer Res 41:1751-6). HMEC cells are a primary human epithelial cell line derived from the breast tissue of a normal donor. […] Treated cells were exposed to 500 nM 5-aza-2-deoxycytidine (Aza; Sigma-Aldrich) 24 hours after passage in complete culture medium. Control cultures were treated in parallel with phosphate buffered saline vehicle. After twenty-four hours, culture medium was replaced with drug-free medium. Control and Aza-treated cells were subcultured at equal densities at 1 and 5 days after the initial treatment, and proliferation was measured at the subsequent time point using a Coulter counter (Beckman Coulter, Fullerton Calif.). […]
Cells were harvested and lysed in 1 ml of TRIZOL reagent (5×10^6 cells/ml; Invitrogen). The lysates were vortexed thoroughly and incubated at room temperature for 2-3 minutes and extracted with 0.5 ml chloroform. The extract was mixed, incubated at room temperature for 5 minutes, and centrifuged at 16,000× g for 15 minutes at 4° C. The aqueous layer was collected, and an equal volume of isopropanol was added. Samples were mixed, incubated at room temperature for 10 minutes, and centrifuged at 16,000× g for 20 minutes at 4° C. The supernatant was removed, and the RNA pellet was washed with 1 ml of 70% ethanol, centrifuged at 16,000× g at 4° C., and resuspended in RNAse-free water. The concentration of the RNA was determined by measuring the optical density at 260 nm.
Poly(A) RNA was prepared using an OLIGOTEX mRNA kit (Qiagen) with the following modifications: OLIGOTEX beads were washed in tubes instead of on spin columns, resuspended in elution buffer, and then loaded onto spin columns to recover mRNA. To obtain maximum yield, the mRNA was eluted twice.
Each poly(A) RNA sample was reverse transcribed using MMLV reverse-transcriptase, 0.05 pg/μl oligo-d(T) primer (21mer), 1× first strand buffer, 0.03 units/ul RNAse inhibitor, 500 uM dAT?, 500 uM dGTP, 500 uM dTTP, 40 uM dCTP, and 40 uM either dCTP-Cy3 or dCTP-Cy5 (APB). The reverse transcription reaction was performed in a […] volume containing 200 ng poly(A) RNA using the GEMBRIGHT kit (Incyte Genomics). Specific control poly(A) RNAs (YCFRO6, YCFR45, YCFR67, YCFR85, YCFR43, YCFR22, YCFR23, YCFR25, YCFR44, YCFR26) were synthesized by in vitro transcription from non-coding yeast genomic DNA (W. Lei, unpublished). As quantitative controls, control mRNAs (YCFRO6, YCFR45, YCFR67, and YCFR85) at 0.002 ng, 0.02 ng, 0.2 ng, and 2 ng were diluted into reverse transcription reaction at ratios of 1:100,000, 1:10,000, 1:1000, 1:100 (w/w) to sample mRNA, respectively. To sample differential expression patterns, control mRNAs (YCFR43, YCFR22, YCFR23, YCFR25, YCFR44, YCFR26) were diluted into reverse transcription reaction at ratios of 1:3, 3:1, 1:10, 10:1, 1:25, 25:1 (w/w) to sample mRNA. Reactions were incubated at 37° C. for 2 hours, treated with […] of 0.5M sodium hydroxide, and incubated for 20 minutes at 85° C. to the stop the reaction and degrade the RNA.
cDNAs were purified using two successive CHROMA SPIN 30 gel filtration spin columns (Clontech). Cy3- and Cy5-labeled reaction samples were combined as described below and ethanol precipitated using […] of 100% ethanol. The cDNAs were then dried to completion using a SpeedVAC system (Savant Instruments, Holbrook N.Y.) and resuspended in 14 μl 5× SSC, 0.2% SDS.
Hybridization reactions contained 9 μl of sample mixture containing 0.2 μg each of Cy3 and CyS labeled cDNA synthesis products in 5× SSC, 0.2% SDS hybridization buffer. The mixture was heated to 65° C. for 5 minutes and was aliquoted onto the microarray surface and covered with an 1.8 cm^2 coverslip. […]

[1] = SEQ ID NO:33 cDNA clone YU62C03
[2] = SEQ ID NO:37, 38 MAGE-4b antigen
[3] = SEQ ID NO:49 phospholipid scramblase 1
[4] = SEQ ID NO:50 retinoid inducible gene 1
[5] = SEQ ID NO:51 interferon induced
[6] = SEQ ID NO:56 hepatitis C-associated microtubular aggregate
[7] = SEQ ID NO:58 Similar to keratin 7

SMILES: Nc1ncn([C@H]2C[C@H](O)[C@@H](CO)O2)c(=O)n1 [Aza, 5-aza-2-deoxycytidine]
- differential expression, Clone ID 4764233, HMEC t/Aza (9d) (SEQ ID NO:30 GAGE-8): 0.00
- differential expression, Clone ID 2511379, HMEC t/Aza (4d) (SEQ ID NO:31 GAGE-7B): 0.32
- differential expression, Clone ID 2511379, HMEC t/Aza (9d) (SEQ ID NO:31 GAGE-7B): 0.32
- differential expression, Clone ID 2471817, HMEC t/Aza (4d) [1]: 0.07
- differential expression, Clone ID 2471817, HMEC t/Aza (9d) [1]: 0.00
- differential expression, Clone ID 3333736, HMEC t/Aza (4d) (SEQ ID NO:34 MAGE-11 antigen): 0.06
- differential expression, Clone ID 3333736, HMEC t/Aza (9d) (SEQ ID NO:34 MAGE-11 antigen): 0.00
- differential expression, Clone ID 1304365, HMEC t/Aza (4d) (SEQ ID NO:35 GAGE-8): 0.00
- differential expression, Clone ID 1304365, HMEC t/Aza (9d) (SEQ ID NO:35 GAGE-8): 0.00
- differential expression, Clone ID 2657056, HMEC t/Aza (4d) [2]: 0.13
- differential expression, Clone ID 2657056, HMEC t/Aza (9d) [2]: 0.00
- differential expression, Clone ID 2507719, HMEC t/Aza (4d) (SEQ ID NO:39 MAGE-9 antigen): −0.48
- differential expression, Clone ID 2507719, HMEC t/Aza (9d) (SEQ ID NO:39 MAGE-9 antigen): −0.24
- differential expression, Clone ID 4688, HMEC t/Aza (4d) (SEQ ID NO:41 MAGE-1): −0.13
- differential expression, Clone ID 4688, HMEC t/Aza (9d) (SEQ ID NO:41 MAGE-1): −0.13
- differential expression, Clone ID 2068708, HMEC t/Aza (4d) (SEQ ID NO:42 HM74): −0.50
- differential expression, Clone ID 2068708, HMEC t/Aza (9d) (SEQ ID NO:42 HM74): −0.24
- differential expression, Clone ID 23770, HMEC t/Aza (4d) (SEQ ID NO:43 1-8D): −0.48
- differential expression, Clone ID 23770, HMEC t/Aza (9d) (SEQ ID NO:43 1-8D): −0.63
- differential expression, Clone ID 1616783, HMEC t/Aza (4d) (SEQ ID NO:45 Incyte Unique): −0.53
- differential expression, Clone ID 1616783, HMEC t/Aza (9d) (SEQ ID NO:45 Incyte Unique): −0.20
- differential expression, Clone ID 820942, HMEC t/Aza (4d) (SEQ ID NO:46 cDNA FLJ20120): −0.48
- differential expression, Clone ID 820942, HMEC t/Aza (9d) (SEQ ID NO:46 cDNA FLJ20120): −0.20
- differential expression, Clone ID 891322, HMEC t/Aza (4d) (SEQ ID NO:47 Incyte Unique): 0.00
- differential expression, Clone ID 891322, HMEC t/Aza (9d) (SEQ ID NO:47 Incyte Unique): 0.00
- differential expression, Clone ID 2755836, HMEC t/Aza (4d) (SEQ ID NO:48 U5 A RNA): −0.26
- differential expression, Clone ID 2755836, HMEC t/Aza (9d) (SEQ ID NO:48 U5 A RNA): −0.31
- differential expression, Clone ID 1227521, HMEC t/Aza (4d) [3]: −0.19
- differential expression, Clone ID 1227521, HMEC t/Aza (9d) [3]: −0.63
- differential expression, Clone ID 2200842, HMEC t/Aza (4d) [4]: 0.00
- differential expression, Clone ID 2200842, HMEC t/Aza (9d) [4]: 0.00
- differential expression, Clone ID 2238363, HMEC t/Aza (4d) [5]: −0.50
- differential expression, Clone ID 2238363, HMEC t/Aza (9d) [5]: −0.29
- differential expression, Clone ID 1495382, HMEC t/Aza (4d) (SEQ ID NO:53 TRAIL): −0.48
- differential expression, Clone ID 1495382, HMEC t/Aza (9d) (SEQ ID NO:53 TRAIL): −0.19
- differential expression, Clone ID 1998269, HMEC t/Aza (4d) (SEQ ID NO:55 rhoB): −0.29
- differential expression, Clone ID 1998269, HMEC t/Aza (9d) (SEQ ID NO:55 rhoB): −0.68
- differential expression, Clone ID 1919287, HMEC t/Aza (4d) [6]: 0.00
- differential expression, Clone ID 1919287, HMEC t/Aza (9d) [6]: 0.00
- differential expression, Clone ID 2637446, HMEC t/Aza (4d) (SEQ ID NO:57 HE4 protein): 0.00
- differential expression, Clone ID 2637446, HMEC t/Aza (9d) (SEQ ID NO:57 HE4 protein): 0.00
- differential expression, Clone ID 1962141, HMEC t/Aza (4d) [7]: 0.00
- differential expression, Clone ID 1962141, HMEC t/Aza (9d) [7]: −0.07
- differential expression, Clone ID 4933404, HMEC t/Aza (4d) (SEQ ID NO:60 Incyte Unique): 0.96
- differential expression, Clone ID 4933404, HMEC t/Aza (9d) (SEQ ID NO:60 Incyte Unique): 0.48
- differential expression, Clone ID 2150288, HMEC t/Aza (4d) (SEQ ID NO:61 Keratin 8): −0.67
- differential expression, Clone ID 2150288, HMEC t/Aza (9d) (SEQ ID NO:61 Keratin 8): −0.42
- differential expression, Clone ID 2697455, HMEC t/Aza (4d) (SEQ ID NO:61 Keratin 8): −0.63
- differential expression, Clone ID 2697455, HMEC t/Aza (9d) (SEQ ID NO:61 Keratin 8): −0.37
